From patent US10766888B1, “HMOX1 inducers” (Mitobridge Inc., priority 2019, dated 2020)
≈ marks a conversion by molar mass, not a printed value. Structures can show the parent of a compound that is named as a salt. Where two headings read alike, the source gives them in different places.

Tests used:
Kinetic solubility = format: physicochemical; conditions: Dulbecco's phosphate buffer saline (DPBS), aqueous buffer, kinetic from dmso stock, DPBS pH 7.4, 25° C., 200 μM test compound
How it was run: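 Compound from 10 mM DMSO stock diluted to 200 μM final in DPBS pH 7.4 and, separately, in DMSO, in duplicate. Shaken 16 h at 25 °C, then centrifuged 20 min at 25 °C. Supernatant analysed by HPLC.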

Human BACH1 = biological target: T1, Human BACH1 (Homo sapiens, UniProt O14867); assay: Microscale thermophoresis (MST) assay / Bach 1 binding assay; conditions: 10 nM fluorescently labeled BACH1(aa179-736), 25° C.
T1 construct: 10×HIS-GP-BACH1(aa179-736)-Thrombin-FLAG; 10xHis (N); GP linker (Gly-Pro) (N); Thrombin cleavage site (C); FLAG (C); host or cells: Sf9 insect cells
T1 sequence (O14867 179-736): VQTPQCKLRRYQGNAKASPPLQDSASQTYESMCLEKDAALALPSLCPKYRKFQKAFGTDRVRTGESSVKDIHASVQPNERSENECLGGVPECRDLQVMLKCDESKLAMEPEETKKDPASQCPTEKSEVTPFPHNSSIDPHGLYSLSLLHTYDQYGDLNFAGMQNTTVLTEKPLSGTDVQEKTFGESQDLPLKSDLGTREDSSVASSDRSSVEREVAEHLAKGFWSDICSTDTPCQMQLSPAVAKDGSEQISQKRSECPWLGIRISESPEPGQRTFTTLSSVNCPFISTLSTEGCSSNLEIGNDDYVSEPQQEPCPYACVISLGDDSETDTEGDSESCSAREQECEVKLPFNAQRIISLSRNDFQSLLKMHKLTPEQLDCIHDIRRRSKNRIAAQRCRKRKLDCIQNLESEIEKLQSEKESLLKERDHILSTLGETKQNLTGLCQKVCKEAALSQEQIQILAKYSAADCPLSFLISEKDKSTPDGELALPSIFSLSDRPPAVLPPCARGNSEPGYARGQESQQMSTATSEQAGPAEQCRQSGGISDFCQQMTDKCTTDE
Method: Example 146. Microscale Thermophoresis (MST) Assay/Bach 1 Binding Assay
Outline of Protein Expression/Production
Human BACH1 (construct-ID: 10×HIS-GP-BACH1(aa179-736)-Thrombin-FLAG) was expressed in Sf9 insect cells. Protein purification was performed using affinity chromatography, followed by size-exclusion chromatography. Quality of resulting protein was judged using SDS-PAGE analysis.
The MST technology is based on measurement of protein movement along a temperature gradient. Thereby, fluorescently labeled protein is loaded into capillaries, where an infrared laser heats a small volume. Before and during heating, fluorescent intensity is measured at the site of irradiation and the loss of fluorescence in the IR laser focus is quantified.
Two major factors contribute to change of fluorescence signal. First of all, the so-called TRIC (Temperature Related Intensity Change) effect is caused by the temperature-dependency of fluorophore's quantum yield. Herein, the extent of the temperature dependence depends on the chemical environment, which may be changed by the binding of a ligand (e.g. compound, peptide) to the target. Moreover, Kd value between ligand and target can depend on temperature. Second, thermophoresis, which is defined as movement of fluorescent molecules along temperature gradient, is a major contributor to change of fluorescence. Hereby, protein movement along the gradient depends on hydrodynamic radius, charge and hydration shell. These properties can change upon association of the labeled protein with another species, e.g. compound. Thereby, MST detects the differences in protein movement with increasing ligand concentration: from this, the fraction of ligand bound protein and a Kd value can be determined.
For Kd determination of compounds binding BACH1, the following protocol was applied: 10×HIS-GP-BACH1(aa179-736)-Thrombin-FLAG (expressed and purified at Proteros) was fluorescently labeled via its lysine-residues (2nd gen NHS-NT.647 dye).
Experiments were performed using the experimental device Monolith NT.115 Pico, NanoTemper Technologies, with MST power set to medium and excitation power set to 2% at a reaction temperature of 25° C.
10 nM fluorescently labeled BACH1 was applied to reaction buffer containing 50 mM HEPES pH 8.0, 100 mM NaCl, 5% glycerol, 0.05% Tween20 and 1 mM DTT in a reaction volume of 8 μL using Monolith NT.115 Premium Capillaries. Compounds were applied at a maximal concentration of 103 μM with 15 subsequent factor 2 dilutions.

[1] = tested on: Human Heme Oxygenase-1 (HMOX-1); assay: ELISA assay to measure human heme oxygenase-1 (HMOX-1) in HepG2 lysate; format: cell-based
How it was run: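 Treated HepG2 cells were lysed in PBS with 0.5% Triton X100, 1 mM EDTA and protease inhibitors, and lysates were diluted 1:20. HO-1 was measured by sandwich ELISA (biotinylated detection antibody, streptavidin-HRP, chemiluminescence) at room temperature against a standard curve from 20 ng/ml. EC50 and fold change were expressed relative to DMSO control.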

FTH1 = FTH1 mRNA expression in HepG2 cells (Nanostring); format: cell-based, human; conditions: 24 hours treatment
Method: RNA Isolation and Quantification of Gene Expression
HepG2 cells were seeded at 250 k/well in 12-well tissue culture plates coated with collagen (collagen I, rat tail (thin plate coating); ENZO Life Sciences) for approximately 24 hours. The seeded cells were then treated with dose titration of the compound of Example 17 or dimethyl fumarate (DMF) (a Nrf2 activator; Fisher Scientific) via media change, with biological triplicates performed for each treatment. After approximately 24 hours of treatment, cells were visually inspected to confirm that no toxicity occurred with compound treatment. The treated cells were washed with PBS, aspirated, parafilmed and frozen at −80° C. prior to RNA isolation. RNA was isolated using Machery-Nagel isolation kit (NucleoSpin® RNA: catalog 740955.250) and then quantitated using ThermoFisher Nanodrop.
RNA was diluted for Nanostring gene expression analysis. The diluted RNA at an input of 200 ng RNA was run on a Nanostring instrument, which was supported with nCounter® SPRINT Profiler System and nSolver4.0 Software, nCounter® SPRINT Cartridge, nCounter® SPRINT Reagent Pack, and nCounter® SPRINT Hybridization Buffer. Analysis was done manually using raw data obtained from nSolver4.0 Software. CLTC, POLR2A, RPL27 and TBP were used as reference genes for normalization. Data was graphed as fold change compared to DMSO treatment. […]

[2] = PK study: plasma and brain levels in mice; format: in vivo, C57BL/6 mice; conditions: mouse, plasma, measured in a previous study
[3] = PD study: compound concentration in mouse liver; format: in vivo, C57BL/6 mice; conditions: male, C57BL/6, mouse, 50 mg/kg, 50 mpk oral
Method: 9-10 week old male C57BL/6 mice were dosed orally with 50 mg/kg of vehicle or compound formulated in 5% w/v tween 80 and 0.5% methyl cellulose. At indicated time points (3 and 6 hours or or 4 and 8 hours post-dosing as shown in the results below), whole blood was collected, animal was sacrificed and liver was collected. Blood samples were transferred to vials containing 4 μL of 10% w/v EDTA, centrifuged at 6000 rpm for 8 in below 10° C. to obtain plasma. Samples were frozen and later processed for HMOX1 protein levels as indicated below: […]

hERG channel = hERG channel (Homo sapiens, UniProt Q12809); assay: hERG manual patch clamp assay; format: cell-based; conditions: HEK 293 cells stably expressing hERG channel, pH 7.35, 10 μM compound
Method: Cell Lines and Cell Culture
HEK 293 cell line stably expressing hERG channel (Cat # K1236) was purchased from Invitrogen. The cells were cultured in 85% DMEM, 10% dialyzed FBS, 0.1 mM NEAA, 25 mM HEPES, 100 U/mL Penicillin-Streptomycin and 5 μg/mL Blasticidin and 400 μg/mL Geneticin. Cells were split using TrypLE™ Express about three times a week, and maintained between ˜40% to ˜80% confluence. Before the assay, the cells were transferred onto the coverslips at 5×10^5 cells/per 6 cm cell culture dish and induced with doxycycline at 1 μg/mL for 48 hours.
• 1) External solution (in mM): 132 NaCl, 4 KCl, 3 CaCl2, 0.5 MgCl2, 11.1 glucose, and 10 HEPES (pH adjusted to 7.35 with NaOH) • 2) Internal solution (in mM): 140 KCl, 2 MgCl2, 10 EGTA, 10 HEPES and 5 MgATP (pH adjusted to 7.35 with KOH) • 3) hERG currents were tested in presence of 10 μM compound concentration with final concentration of DMSO of 0.1%. Experimental Procedure • 1) Removed the coverslip from the cell culture dish and placed it on the microscope stage in bath chamber. • 2) Located a desirable cell using the 10× objective. Located the tip of the electrode under the microscope using the 10× objective by focusing above the plane of the cells. Once the tip was in focus, advanced the electrode downwards towards the cell using the coarse controls of the manipulator, while simultaneously moving the objective to keep the tip in focus. • 3) When directly over the cell, switched to the 40× objective and used the fine controls of the manipulator to approach the surface of the cell in small steps. • 4) Applied gentle suction through the side-port of the electrode holder to form a gigaohm seal. • 5) Used the Cfast to remove the capacity current that was in coincidence with the voltage step. Obtained the whole cell configuration by applying repetitive, brief, strong suction until the membrane patch ruptured. • 6) Set membrane potential to −60 mV at this point to ensure that hERG channels were not • open. The spikes of capacity current should then be cancelled using the Cslow on the amplifier. 7) Set holding potential to −90 mV for 500 ms; recorded current at 50 kHz and filtered at 10 kHz. Leaking current was tested at −80 mV for 500 ms. • 8) The hERG current was elicited by depolarizing at +30 mV for 4.8 seconds and then the voltage was taken back to −50 mV for 5.2 seconds to remove the inactivation and observe the deactivating tail current. The maximum amount of tail current size was used to determine hERG current amplitude. • 9) Recorded current for 120 seconds to assess the current stability. Only stable cells with recording parameters above threshold were applied for the compound administrations. • 10) Firstly vehicle control was applied to the cells to establish the baseline. […] In order to ensure the good performance of cultured cells and operations, the positive control, Dofetilide, with 5 dose concentration was also used to test the same batch of cells. Data Analysis
The following criteria were used to determine data acceptability. • 1) Initial seal resistance >1 GΩ; • 2) Leak currents <50% of the control peak tail currents at any time; • 3) The peak tail amplitude >250 pA; • 4) Membrane resistance Rm>500 MΩ; • 5) Access resistance (Ra)<10 MΩ; • 6) Apparent run-down of peak current <2.5% per min.
Data that met the above criteria for hERG current quality were further analyzed as the following steps. • 1) Percent hERG current inhibition was calculated using the following equation. • Note: PatchMaster or Clampfit software was used to extract the peak current from the original data.
[formula] • 2) The dose response curve of test compounds was plotted with percentage of hERG current inhibition against the concentration of test compounds using Graphpad Prism 6.0, and fit to a sigmoid dose-response curve with a variable slope.

[4] = human HMOX1 protein level in HepG2 lysate, * = average of 2 or more EC50 determinations, NA = Not Active, read-out: EC50

Chain of hERG channel (Q12809 whole entry): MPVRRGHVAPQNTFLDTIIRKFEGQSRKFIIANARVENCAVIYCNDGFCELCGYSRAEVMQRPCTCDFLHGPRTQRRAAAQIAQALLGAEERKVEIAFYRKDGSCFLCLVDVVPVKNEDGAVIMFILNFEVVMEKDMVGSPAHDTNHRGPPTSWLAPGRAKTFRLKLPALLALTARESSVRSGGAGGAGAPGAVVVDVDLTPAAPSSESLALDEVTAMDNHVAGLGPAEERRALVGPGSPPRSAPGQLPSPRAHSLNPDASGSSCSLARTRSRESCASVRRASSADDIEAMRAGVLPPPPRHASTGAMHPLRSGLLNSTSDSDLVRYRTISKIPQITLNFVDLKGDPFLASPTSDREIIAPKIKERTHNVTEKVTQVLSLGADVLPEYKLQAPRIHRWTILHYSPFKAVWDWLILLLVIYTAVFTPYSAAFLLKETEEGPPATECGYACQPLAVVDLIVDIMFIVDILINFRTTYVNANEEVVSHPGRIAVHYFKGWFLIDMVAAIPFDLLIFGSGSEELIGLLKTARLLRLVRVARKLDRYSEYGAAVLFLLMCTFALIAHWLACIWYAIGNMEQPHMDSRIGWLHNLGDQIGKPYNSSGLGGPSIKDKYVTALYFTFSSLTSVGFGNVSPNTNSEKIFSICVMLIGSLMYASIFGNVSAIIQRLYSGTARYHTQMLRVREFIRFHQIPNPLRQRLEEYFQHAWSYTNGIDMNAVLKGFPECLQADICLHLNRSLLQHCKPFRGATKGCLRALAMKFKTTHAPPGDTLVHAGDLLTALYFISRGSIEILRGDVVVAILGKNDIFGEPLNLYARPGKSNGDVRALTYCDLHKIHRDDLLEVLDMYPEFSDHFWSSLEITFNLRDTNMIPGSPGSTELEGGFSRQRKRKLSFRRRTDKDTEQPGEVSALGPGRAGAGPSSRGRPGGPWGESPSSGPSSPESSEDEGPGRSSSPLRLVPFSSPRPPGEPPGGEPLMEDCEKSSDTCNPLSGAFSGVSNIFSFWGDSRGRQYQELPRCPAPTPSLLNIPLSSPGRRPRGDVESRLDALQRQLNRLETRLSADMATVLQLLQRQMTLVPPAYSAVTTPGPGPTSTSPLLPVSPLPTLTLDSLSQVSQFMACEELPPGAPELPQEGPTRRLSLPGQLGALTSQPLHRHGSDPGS

| Compound | solubility at 16 h (Kinetic solubility) | Kd (Human BACH1) | EC50 [1, 4] | further results |
| --- | --- | --- | --- | --- |
| Cn1c(Nc2nc3ccc(C(F)(F)F)cc3o2)nc2cc(C(=O)NCCO)ccc21 [Example 33, N-(2-hydroxyethyl)-1-methyl-2-((6-(trifluoromethyl)benzo[d]oxazol-2-yl)amino)-1H-benzo[d]imidazole-5-carboxamide] | 0.9 µM (≈ 0.377 µg/mL) | 260 nM | 300 nM | – |
| COC(=O)/C=C/C(=O)OC [DMF, dimethyl fumarate, reference compound] | – | – | – | FTH1 expression fold increase (in words) (FTH1): comparable fold increases |
| Cn1c(Nc2nc3ccc(OC(F)(F)F)cc3s2)nc2cc(C(=O)NCCOCCO)ccc21 [Comparator 1, 1-methyl-2-(6-trifluoromethoxy-benzothiazol-2-ylamino)-1H-benzoimidazole-5-carboxylic acid [2-(2-hydroxy-ethoxy)-ethyl]-amide, reference compound] | – | – | 900 nM | concentration at 1 h ([2]; 1 hr): 2070 ± 318 ng/mL; concentration at 4 h ([2]; 4 hr): 288 ± 124 ng/mL; concentration at 3 h ([3]; 3 h, read-out: Liver Conc uM (3 h)): 12.2 µM; concentration at 6 h ([3]; 6 h, read-out: Liver Conc uM (6 h)): 1.3 µM; inhibition at 10 µM (hERG channel): 66%; EC50 ([1]; HepG2, human HMOX1, as listed in Table 5, read-out: HMOX1 EC50 h): 900 nM |

More lines, main results first:

| solubility at 16 h (Kinetic solubility) | Kd (Human BACH1) | EC50 [1, 4] | Compound | further results |
| --- | --- | --- | --- | --- |
| < 2 µM | 200 nM | 200 nM | COCCONC(=O)c1ccc2c(c1)nc(Nc1nc3ccc(C(F)(F)F)cc3o1)n2C [Example 124, N-(2-methoxyethoxy)-1-methyl-2-((6-(trifluoromethyl)benzo[d]oxazol-2-yl)amino)-1H-benzo[d]imidazole-5-carboxamide] | – |
| – | 560 nM | – | COCCNC(=O)c1ccc2c(c1)nc(Nc1nc3ncccc3o1)n2C [Example 112, N-(2-methoxyethyl)-1-methyl-2-(oxazolo[4,5-b]pyridin-2-ylamino)-1H-benzo[d]imidazole-5-carboxamide] | – |
